Results as given in ChEMBL document CHEMBL5113396, “Development of 4-((3-oxo-3-phenylpropyl)amino)benzenesulfonamide derivatives utilizing tail/dual-tail approaches as novel carbonic anhydrase inhibitors” (Eur J Med Chem, 2022).

Key:
Carbonic anhydrase 9 = Carbonic anhydrase 9 (Homo sapiens, UniProt Q16790)
Description: Inhibition of human carbonic anhydrase 9 assessed as inhibition constant incubated for 15 mins prior to testing by phenol red based stopped-flow CO2 hydration assay

T47D [1] = assay: Antiproliferative activity against human T47D cells assessed as cell growth inhibition incubated for 4 hrs under hypoxia condition by MTT colorimetric assay; assay type: functional, cell-based
MCF7 [2] = assay: Antiproliferative activity against human MCF7 cells assessed as cell growth inhibition incubated for 4 hrs under hypoxia condition by MTT colorimetric assay; assay type: functional, cell-based; conditions: MCF7, 4 h
T47D [3] = assay: Antiproliferative activity against human T47D cells assessed as cell growth inhibition incubated for 4 hrs under normoxia condition by MTT colorimetric assay; assay type: functional, cell-based
MCF7 [4] = assay: Antiproliferative activity against human MCF7 cells assessed as cell growth inhibition incubated for 4 hrs under normoxia condition by MTT colorimetric assay; assay type: functional, cell-based; conditions: MCF7, 4 h

Row | SMILES | Ki (Carbonic anhydrase 9) [nM] | further results
1 | NS(=O)(=O)c1ccccc1NCCC(=O)c1ccccc1 | 313 | –
2 | NS(=O)(=O)c1ccc(NNCCC(=O)c2ccccc2)cc1 | 82.5 | –
3 | NS(=O)(=O)c1ccc(CCNCCC(=O)c2ccccc2)cc1 | 87.9 | –
4 | NS(=O)(=O)c1cccc(NCCC(=O)c2ccccc2)c1 | 75.7 | –
5 | NS(=O)(=O)c1ccc(C(=O)NNCCC(=O)c2ccccc2)cc1 | 45.3 | –
6 | NS(=O)(=O)c1ccc(NCC/C(=N\O)c2ccccc2)cc1 | 53.8 | –
7 | NS(=O)(=O)c1ccccc1NCCC(=O)c1ccc2ccccc2c1 | 945 | –
8 | NS(=O)(=O)c1cccc(NCCC(=O)c2ccc3ccccc3c2)c1 | 38.7 | –
9 | NS(=O)(=O)c1ccc(C(=O)NNCCC(=O)c2ccc3ccccc3c2)cc1 | 36.3 | –
10 | NS(=O)(=O)c1ccc(NCCC(=O)c2ccccc2)cc1 | 51.5 | –
11 | NS(=O)(=O)c1ccc(NCC/C(=N/CCO)c2ccccc2)cc1 | 10.2 | IC50 (T47D [1]): 10900 nM; IC50 (MCF7 [2]): 5700 nM; IC50 (T47D [3]): 43100 nM; IC50 (MCF7 [4]): 29300 nM
12 | NS(=O)(=O)c1ccc(NNCCC(=O)c2ccc3ccccc3c2)cc1 | 66.7 | –
13 | NS(=O)(=O)c1ccc(NCCC(=O)c2ccc3ccccc3c2)cc1 | 9.4 | IC50 (T47D [1]): 19000 nM; IC50 (MCF7 [2]): 7500 nM; IC50 (T47D [3]): > 100000 nM; IC50 (MCF7 [4]): 55100 nM
14 | COc1cccc2c1C(=O)c1c(O)c3c(c(O)c1C2=O)C[C@@](O)(C(=O)CO)C[C@@H]3O[C@H]1C[C@H](N)[C@H](O)[C@H](C)O1 [DOXORUBICIN] | – | IC50 (T47D [1]): 3800 nM; IC50 (T47D [3]): 3200 nM
